Source: PubChem BioAssay AID220 (DTP/NCI, 2004)
Several values for one entry are separate records, joined by “and”; a condition that tells them apart may be missing. Identical values can stand only once. Results filed as inconclusive are left out.

Tested on: CD8F1 mice, subcutaneous mammary adenocarcinoma, T/C%
Assay: NCI In Vivo Anticancer Drug Screen. Data for tumor model Mammary Adenocarcinoma CD8F1 (subcutaneous) in CD8F1
Settings: higher = larger tumour
Method in brief: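 Mice carrying transplanted tumors received test compound, and survival or tumor size was recorded. Each value is the treated-group measurement divided by the corresponding measurement in vehicle-dosed controls.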

[1] = endpoint: median tumor weight (est.), dose: 12.5 mg/kg/injection, schedule: Q07DX005 (ip), vehicle: saline with Tween-80
[2] = endpoint: median tumor weight (est.), dose: 50.0 mg/kg/injection, schedule: Q07DX005 (ip), vehicle: saline with Tween-80
[3] = endpoint: median tumor weight (est.), dose: 200.0 mg/kg/injection, schedule: Q07DX005 (ip), vehicle: saline with Tween-80
[4] = endpoint: median tumor weight (est.), dose: 400.0 mg/kg/injection, schedule: Q07DX005 (ip), vehicle: saline with Tween-80
[5] = endpoint: median tumor weight (est.), dose: 12.5 mg/kg/injection, schedule: Q07DX005 (ip), vehicle: Klucel (hydroxypropylcellulose) (HPC)
[6] = endpoint: median tumor weight (est.), dose: 50.0 mg/kg/injection, schedule: Q07DX005 (ip), vehicle: Klucel (hydroxypropylcellulose) (HPC)
[7] = endpoint: median tumor weight (est.), dose: 100.0 mg/kg/injection, schedule: Q07DX005 (ip), vehicle: Klucel (hydroxypropylcellulose) (HPC)
[8] = endpoint: median tumor weight (est.), dose: 400.0 mg/kg/injection, schedule: Q07DX005 (ip), vehicle: Klucel (hydroxypropylcellulose) (HPC)

SMILES: O=c1n[n+]([O-])ccn1C1OC(CO)C(O)C1O (stereo not given)
- T/C (endpoint: mean tumor weight, dose: 150.0 mg/kg/injection, schedule: Q07DX006 (ip), vehicle: saline): 175 % of control
- T/C (endpoint: mean tumor weight, dose: 150.0 mg/kg/injection, schedule: Q07DX007 (ip), vehicle: saline): 50 % of control
- T/C (endpoint: mean tumor weight, dose: 300.0 mg/kg/injection, schedule: Q07DX006 (ip), vehicle: saline): 90 % of control
- T/C (endpoint: mean tumor weight, dose: 300.0 mg/kg/injection, schedule: Q07DX007 (ip), vehicle: saline): 60 % of control
- T/C (endpoint: mean tumor weight, dose: 600.0 mg/kg/injection, schedule: Q07DX006 (ip), vehicle: saline): 33 % of control
- T/C (endpoint: mean tumor weight, dose: 600.0 mg/kg/injection, schedule: Q07DX007 (ip), vehicle: saline): 65 % of control
- T/C (endpoint: median tumor weight (est.), dose: 50.0 mg/kg/injection, schedule: Q07DX005 (ip), vehicle: saline): 82 % of control
- T/C (endpoint: median tumor weight (est.), dose: 100.0 mg/kg/injection, schedule: Q07DX005 (ip), vehicle: saline): 93 % of control
- T/C (endpoint: median tumor weight (est.), dose: 200.0 mg/kg/injection, schedule: Q07DX005 (ip), vehicle: saline): 71 % of control
- T/C (endpoint: median tumor weight (est.), dose: 300.0 mg/kg/injection, schedule: Q07DX005 (ip), vehicle: saline): 101 % of control
- T/C (endpoint: median tumor weight (est.), dose: 600.0 mg/kg/injection, schedule: Q07DX005 (ip), vehicle: saline): 106 % of control

SMILES: CCOC(=O)NC1=C(N2CC2)C(=O)C(NC(=O)OCC)=C(N2CC2)C1=O
- T/C (endpoint: median tumor weight (est.), dose: 0.78 mg/kg/injection, schedule: Q07DX005 (ip), vehicle: saline): 36 % of control
- T/C (endpoint: median tumor weight (est.), dose: 1.56 mg/kg/injection, schedule: Q07DX005 (ip), vehicle: saline with Tween-80): 53 % of control
- T/C (endpoint: median tumor weight (est.), dose: 1.56 mg/kg/injection, schedule: Q07DX005 (ip), vehicle: saline): 36 % of control
- T/C (endpoint: median tumor weight (est.), dose: 3.12 mg/kg/injection, schedule: Q07DX005 (ip), vehicle: saline with Tween-80): 59 % of control
- T/C (endpoint: median tumor weight (est.), dose: 3.12 mg/kg/injection, schedule: Q07DX005 (ip), vehicle: saline): 56 % of control
- T/C (endpoint: median tumor weight (est.), dose: 6.25 mg/kg/injection, schedule: Q07DX005 (ip), vehicle: saline with Tween-80): 25 % of control
- T/C (endpoint: median tumor weight (est.), dose: 6.25 mg/kg/injection, schedule: Q07DX005 (ip), vehicle: saline): 25 % of control
- T/C [1]: 11 % of control
- T/C (endpoint: median tumor weight (est.), dose: 12.5 mg/kg/injection, schedule: Q07DX005 (ip), vehicle: saline): 23 % of control
- T/C (endpoint: median tumor weight change, dose: 2.5 mg/kg/injection, schedule: Q01DX001 (ip), vehicle: saline): 33 % of control
- T/C (endpoint: median tumor weight change, dose: 2.5 mg/kg/injection, schedule: Q01DX001 (ip), vehicle: suspension in saline): 81 % of control
- T/C (endpoint: median tumor weight change, dose: 5.0 mg/kg/injection, schedule: Q01DX001 (ip), vehicle: saline): 43 % of control
- T/C (endpoint: median tumor weight change, dose: 5.0 mg/kg/injection, schedule: Q01DX001 (ip), vehicle: suspension in saline): 80 % of control
- T/C (endpoint: median tumor weight change, dose: 10.0 mg/kg/injection, schedule: Q01DX001 (ip), vehicle: saline with Tween-80): 16 % of control and 31 % of control
- T/C (endpoint: median tumor weight change, dose: 10.0 mg/kg/injection, schedule: Q01DX001 (ip), vehicle: saline): 32 % of control
- T/C (endpoint: median tumor weight change, dose: 10.0 mg/kg/injection, schedule: Q01DX001 (ip), vehicle: suspension in saline): 52 % of control
- T/C (endpoint: median tumor weight change, dose: 20.0 mg/kg/injection, schedule: Q01DX001 (ip), vehicle: saline with Tween-80): -14 % of control
- T/C (endpoint: median tumor weight change, dose: 20.0 mg/kg/injection, schedule: Q01DX001 (ip), vehicle: saline): 11 % of control
- T/C (endpoint: median tumor weight change, dose: 20.0 mg/kg/injection, schedule: Q01DX001 (ip), vehicle: suspension in saline): 19 % of control

SMILES: C/C=C1\C[C@@H]2C(OC)Nc3cc(O)c(OC)cc3C(=O)N2C1 (stereo not given in full)
- T/C (endpoint: median tumor weight change, dose: 0.06 mg/kg/injection, schedule: Q01DX001 (ip), vehicle: saline): 105 % of control
- T/C (endpoint: median tumor weight change, dose: 0.12 mg/kg/injection, schedule: Q01DX001 (ip), vehicle: saline): 96 % of control
- T/C (endpoint: median tumor weight change, dose: 0.25 mg/kg/injection, schedule: Q01DX001 (ip), vehicle: saline): 105 % of control
- T/C (endpoint: median tumor weight change, dose: 0.31 mg/kg/injection, schedule: Q01DX001 (ip), vehicle: suspension in saline): 76 % of control
- T/C (endpoint: median tumor weight change, dose: 0.5 mg/kg/injection, schedule: Q01DX001 (ip), vehicle: saline): 90 % of control
- T/C (endpoint: median tumor weight change, dose: 0.62 mg/kg/injection, schedule: Q01DX001 (ip), vehicle: suspension in saline): 53 % of control
- T/C (endpoint: median tumor weight change, dose: 1.0 mg/kg/injection, schedule: Q01DX001 (ip), vehicle: saline): 92 % of control
- T/C (endpoint: median tumor weight change, dose: 1.25 mg/kg/injection, schedule: Q01DX001 (ip), vehicle: suspension in saline): 43 % of control
- T/C (endpoint: median tumor weight change, dose: 2.0 mg/kg/injection, schedule: Q01DX001 (ip), vehicle: saline): 42 % of control

SMILES: N#CC(=C1SCS1)[N+](=O)[O-]
- T/C (endpoint: median tumor weight change, dose: 7.5 mg/kg/injection, schedule: Q01DX001 (ip), vehicle: saline with Tween-80): 83 % of control
- T/C (endpoint: median tumor weight change, dose: 15.0 mg/kg/injection, schedule: Q01DX001 (ip), vehicle: saline with Tween-80): 90 % of control
- T/C (endpoint: median tumor weight change, dose: 30.0 mg/kg/injection, schedule: Q01DX001 (ip), vehicle: saline with Tween-80): 152 % of control
- T/C (endpoint: median tumor weight change, dose: 60.0 mg/kg/injection, schedule: Q01DX001 (ip), vehicle: saline with Tween-80): 48 % of control

SMILES: CC(Cc1ccc(O)cc1)NCC(O)c1ccc(O)c(O)c1 (stereo not given)
- T/C [1]: 49 % of control
- T/C (endpoint: median tumor weight (est.), dose: 25.0 mg/kg/injection, schedule: Q07DX005 (ip), vehicle: saline with Tween-80): 90 % of control
- T/C [2]: 106 % of control
- T/C [3]: 110 % of control
- T/C [4]: 84 % of control

SMILES: O=C(O)C(CSC(c1ccccc1)(c1ccccc1)c1ccccc1)N=Cc1cccs1 (stereo not given)
- T/C (endpoint: median tumor weight change, dose: 62.5 mg/kg/injection, schedule: Q01DX001 (ip), vehicle: suspension in saline): 112 % of control
- T/C (endpoint: median tumor weight change, dose: 125.0 mg/kg/injection, schedule: Q01DX001 (ip), vehicle: suspension in saline): 111 % of control
- T/C (endpoint: median tumor weight change, dose: 250.0 mg/kg/injection, schedule: Q01DX001 (ip), vehicle: saline): 64 % of control
- T/C (endpoint: median tumor weight change, dose: 250.0 mg/kg/injection, schedule: Q01DX001 (ip), vehicle: suspension in saline): 95 % of control

SMILES: CCCCC[C@H](O)/C=C/[C@@H]1[C@@H](C/C=C\CCCC(=O)O)[C@@H](O)C[C@H]1O
- T/C (endpoint: mean tumor weight, dose: 160.0 mg/kg/injection, schedule: Q01DX001 (iv), vehicle: saline): 93 % of control
- T/C (endpoint: mean tumor weight, dose: 320.0 mg/kg/injection, schedule: Q01DX001 (iv), vehicle: saline): 58 % of control

SMILES: CC(=Nc1ccccc1)C1=C(O)C(Cc2ccccc2)NC1=O (stereo not given)
- T/C [1]: 218 % of control and 100 % of control
- T/C [2]: 89 % of control
- T/C [3]: 211 % of control and 85 % of control
- T/C [4]: 39 % of control and 62 % of control

SMILES: O=S(CCCl)CCCl
- T/C (endpoint: median tumor weight (est.), dose: 1.56 mg/kg/injection, schedule: Q07DX005 (ip), vehicle: Klucel (hydroxypropylcellulose) (HPC)): 75 % of control
- T/C (endpoint: median tumor weight (est.), dose: 3.12 mg/kg/injection, schedule: Q07DX005 (ip), vehicle: Klucel (hydroxypropylcellulose) (HPC)): 100 % of control
- T/C (endpoint: median tumor weight (est.), dose: 6.25 mg/kg/injection, schedule: Q07DX005 (ip), vehicle: Klucel (hydroxypropylcellulose) (HPC)): 230 % of control
- T/C [5]: 91 % of control

SMILES: NC(=O)c1ncn(C2OC(CO)C(O)C2O)c1O (stereo not given)
- T/C [6]: 85 % of control
- T/C [7]: 105 % of control
- T/C (endpoint: median tumor weight (est.), dose: 200.0 mg/kg/injection, schedule: Q07DX005 (ip), vehicle: Klucel (hydroxypropylcellulose) (HPC)): 72 % of control
- T/C [8]: 83 % of control

SMILES: NC(=O)c1c[se]c(C2OC(CO)C(O)C2O)n1 (stereo not given)
- T/C (endpoint: median tumor weight change, dose: 50.0 mg/kg/injection, schedule: Q01DX001 (ip), vehicle: water): 124 % of control
- T/C (endpoint: median tumor weight change, dose: 75.0 mg/kg/injection, schedule: Q01DX001 (ip), vehicle: water): 45 % of control
- T/C (endpoint: median tumor weight change, dose: 100.0 mg/kg/injection, schedule: Q01DX001 (ip), vehicle: water): 83 % of control
- T/C (endpoint: median tumor weight change, dose: 150.0 mg/kg/injection, schedule: Q01DX001 (ip), vehicle: water): 73 % of control
- T/C (endpoint: median tumor weight change, dose: 200.0 mg/kg/injection, schedule: Q01DX001 (ip), vehicle: water): 89 % of control
- T/C (endpoint: median tumor weight change, dose: 300.0 mg/kg/injection, schedule: Q01DX001 (ip), vehicle: water): 47 % of control
- T/C (endpoint: median tumor weight change, dose: 400.0 mg/kg/injection, schedule: Q01DX001 (ip), vehicle: water): 95 % of control
- T/C (endpoint: median tumor weight change, dose: 600.0 mg/kg/injection, schedule: Q01DX001 (ip), vehicle: water): 43 % of control
- T/C (endpoint: median tumor weight change, dose: 1200.0 mg/kg/injection, schedule: Q01DX001 (ip), vehicle: water): 50 % of control

SMILES: O=C([CH-]C(=O)C(F)(F)F)c1ccccc1.O=C([CH-]C(=O)C(F)(F)F)c1ccccc1.O=C([CH-]C(=O)C(F)(F)F)c1ccccc1.O=C([CH-]C(=O)C(F)(F)F)c1ccccc1.[Eu+3].c1ccncc1
- T/C [5]: 109 % of control
- T/C (endpoint: median tumor weight (est.), dose: 25.0 mg/kg/injection, schedule: Q07DX005 (ip), vehicle: Klucel (hydroxypropylcellulose) (HPC)): 109 % of control
- T/C [6]: 103 % of control
- T/C [7]: 95 % of control
- T/C [8]: 110 % of control
